According to publication PMC6272684, “Synthesis, Antiproliferative and Antifungal Activities of 1,2,3-Triazole-Substituted Carnosic Acid and Carnosol Derivatives” (Molecules, 2015):
Read-outs that look alike come from different tables or passages of the source.

Assays:
C. neoformans ATCC 32264 = test: Antifungal broth microdilution (CLSI M27-A3), growth inhibition; type: cell-based, Cryptococcus neoformans; details: for MIC50 (minimum concentration to inhibit 50% of fungal growth), C. neoformans: C. neoformans ATCC 32264
Method in brief: (§1)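 Yeast inocula (1–5 × 10^3 CFU/mL) were tested by CLSI M27-A3 broth microdilution in RPMI-1640 at 250–3.9 μg∙mL^−1 (DMSO ≤1%) for 48 h at 30 °C in the dark. Growth was read at OD405, and % inhibition was calculated against growth and sterility controls in triplicate. MIC100 is total inhibition; MIC50 is 50% inhibition.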

[1] = system: lung cancer (SK-MES-1) cells; test: Antiproliferative assay (MTT reduction, 3 days); type: cell-based, human; details: >100 µM considered inactive, read-out: IC50 ± SD, SK-MES-1
Procedure: (§2) The antiproliferative activity towards the following human cell lines was determined: normal lung fibroblasts (MRC-5), gastric epithelial adenocarcinoma (AGS), lung cancer (SK-MES-1) and bladder carcinoma (J82) cells.
(§3) All human cell lines used in this work were purchased from the American Type Culture Collection (ATCC, Manasas, VA, USA). […] All media were supplemented with 10% heat-inactivated FBS, 100 IU∙mL^−1 penicillin and 100 µg∙mL^−1 streptomycin. Cells were grown in a humidified incubator with 5% CO2 in air at 37 °C. For the antiproliferative assay, cells were plated at a density of 5 × 10^4 cells∙mL^−1. Cells were seeded in 96-well plates (100 µL∙well^−1). One day after seeding, cells were treated with medium containing the compounds at concentrations ranging from 0 up to 100 µM during 3 days. The compounds were dissolved in DMSO (1% final concentration) and complete medium. Untreated cells (medium containing 1% DMSO) were used as 100% viability controls. […] Each concentration was tested in sextuplicate and experiments were repeated 2 times. Cell viability was determined by means of the MTT reduction assay at the end of the incubation with the products. […] The software used was OriginPro 8.1 [30].

[2] = system: normal lung fibroblasts (MRC-5); test: Antiproliferative assay (MTT reduction, 3 days); type: cell-based, human; details: MRC-5 normal fibroblasts, >100 µM considered inactive; for IC50: read-out: IC50 ± SD, MRC-5
Procedure: as §2, §3

C. albicans ATCC 10231 = test: Antifungal broth microdilution (CLSI M27-A3), growth inhibition; type: cell-based, Candida albicans; details: for MIC50 (minimum concentration to inhibit 50% of fungal growth), C. albicans: C. albicans ATCC 10231; for Antifungal activity against C. albicans (in words): at the assayed concentrations (250–3.9 μg∙mL^−1)
Method in brief: as §1

[3] = system: gastric epithelial adenocarcinoma (AGS) cells; test: Antiproliferative assay (MTT reduction, 3 days); type: cell-based, human; details: >100 µM considered inactive; for IC50: read-out: IC50 ± SD, AGS
Procedure: as §2, with “cells. […] When comparing the pairs 3–4, 5–6 and 7–8 differing in one CH2 unit in the linker, the activity decreased with linker length.” for “cells.”
(§4) All human cell lines used in this work were purchased from the American Type Culture Collection (ATCC, Manasas, VA, USA). Normal lung MRC-5 fibroblasts (CCL-171), SK-MES-1 lung cancer cells (HTB-58) and J82 bladder carcinoma cells (HTB-1) were grown as monolayers in minimum essential Eagle medium (MEM) with Earles’s salts, 2 mM L-glutamine and 1.5 g∙L^−1 sodium bicarbonate. Gastric adenocarcinoma AGS cells (CRL-1739) were grown as monolayers in Ham F-12 medium containing 1 mM L-glutamine and 1.5 g∙L^−1 sodium bicarbonate. All media were supplemented with 10% heat-inactivated FBS, 100 IU∙mL^−1 penicillin and 100 µg∙mL^−1 streptomycin. Cells were grown in a humidified incubator with 5% CO2 in air at 37 °C. For the antiproliferative assay, cells were plated at a density of 5 × 10^4 cells∙mL^−1. Cells were seeded in 96-well plates (100 µL∙well^−1). One day after seeding, cells were treated with medium containing the compounds at concentrations ranging from 0 up to 100 µM during 3 days. The compounds were dissolved in DMSO (1% final concentration) and complete medium. Untreated cells (medium containing 1% DMSO) were used as 100% viability controls. […] Each concentration was tested in sextuplicate and experiments were repeated 2 times. Cell viability was determined by means of the MTT reduction assay at the end of the incubation with the products. The results were transformed to percentage of controls and the IC50 value was obtained adjusting the dose-response curve to a sigmoidal model. The software used was OriginPro 8.1 [30].

[4] = system: bladder carcinoma (J82) cells; test: Antiproliferative assay (MTT reduction, 3 days); type: cell-based, human; details: read-out: IC50 ± SD, J82
Procedure: as §2, with “cells. […] When comparing the pairs 3–4, 5–6 and 7–8 differing in one CH2 unit in the linker, the activity decreased with linker length.” for “cells.”
as §4

[5] = J82 cells, 3 days, MTT, >100 µM considered inactive

MIC50 (minimum concentration to inhibit 50% of fungal growth), C. neoformans (C. neoformans ATCC 32264) [µg/mL] | IC50 [1] [µM] | MIC50 (minimum concentration to inhibit 50% of fungal growth), C. albicans (C. albicans ATCC 10231) [µg/mL] | IC50 [3] [µM] | IC50 [4, 5] [µM] | Structure (SMILES) | Inhibition percentage against C. neoformans ATCC 32264 (C. neoformans ATCC 32264; 3.9 μg∙mL^−1, 48 h) [%] | Inhibition percentage against C. neoformans ATCC 32264 (C. neoformans ATCC 32264; 7.8 μg∙mL^−1, 48 h) [%] | Inhibition percentage against C. neoformans ATCC 32264 (C. neoformans ATCC 32264; 15.6 μg∙mL^−1, 48 h) [%] | Inhibition percentage against C. neoformans ATCC 32264 (C. neoformans ATCC 32264; 31.2 μg∙mL^−1, 48 h) [%] | Inhibition percentage against C. neoformans ATCC 32264 (C. neoformans ATCC 32264; 62.5 μg∙mL^−1, 48 h) [%] | Inhibition percentage against C. neoformans ATCC 32264 (C. neoformans ATCC 32264; 125 μg∙mL^−1, 48 h) [%] | Inhibition percentage against C. neoformans ATCC 32264 (C. neoformans ATCC 32264; 250 μg∙mL^−1, 48 h) [%] | IC50 [2] [µM] | Inhibition percentage against C. albicans ATCC 10231 (C. albicans ATCC 10231; 3.9 μg∙mL^−1, 48 h) [%] | Inhibition percentage against C. albicans ATCC 10231 (C. albicans ATCC 10231; 7.8 μg∙mL^−1, 48 h) [%] | Inhibition percentage against C. albicans ATCC 10231 (C. albicans ATCC 10231; 15.6 μg∙mL^−1, 48 h) [%] | Inhibition percentage against C. albicans ATCC 10231 (C. albicans ATCC 10231; 62.5 μg∙mL^−1, 48 h) [%] | Inhibition percentage against C. albicans ATCC 10231 (C. albicans ATCC 10231; 125 μg∙mL^−1, 48 h) [%] | Inhibition percentage against C. albicans ATCC 10231 (C. albicans ATCC 10231; 250 μg∙mL^−1, 48 h) [%] | Inhibition percentage against C. albicans ATCC 10231 (C. albicans ATCC 10231; 31. μg∙mL^−1, 48 h) [%] | also measured
>250 | 81.7 ± 4.3 | >250 | 39.2 ± 2.3 | > 100 | CC(C)c1cc2c3c(c1OC(=O)CCc1cn(CSc4ccccc4)nn1)OC(=O)[C@@]31CCCC(C)(C)[C@@H]1CC2 [Compound 1, 12-O-(3-(((1-phenylthio)methyl)-1H-1,2,3-triazol-4-yl)-propanoyloxy)-11,20-epoxyabieta-8,11,13-trien-20-one] | 0.0 | 0.0 | 0.0 | 3.7 ± 0.1 | 3.9 ± 0.4 | 8.9 ± 0.7 | 11.0 ± 0.5 | 45.1 ± 2.1 | 0.0 | 0.0 | 0.4 ± 0.2 | 3.5 ± 0.3 | 8.2 ± 0.1 | 17.1 ± 0.1 | 1.9 ± 0.3 | Antifungal activity against C. albicans (in words) (C. albicans ATCC 10231): devoid of activity
250 | 76 ± 5.1 | 250 | 41 ± 2.1 | 80.1 ± 4.3 | CC(C)c1cc2c3c(c1OC(=O)CCCc1cn(CSc4ccccc4)nn1)OC(=O)C31CCCC(C)(C)C1CC2 (centres unmarked) [Compound 2, 12-O-(4-(((1-phenylthio)methyl)-1H-1,2,3-triazol-4-yl)-butanoyloxy)-11,20-epoxyabieta-8,11,13-trien-20-one] | 1.5 ± 0.1 | 1.9 ± 0.5 | 10.3 ± 1.0 | 11.8 ± 0.3 | 20.7 ± 0.6 | 22.1 ± 1.5 | 74.8 ± 2.8 | 46.9 ± 3.4 | 1.5 ± 0.1 | 1.9 ± 0.5 | 5.2 ± 0.6 | 15.7 ± 1.8 | 27.9 ± 1.8 | 50.7 ± 0.3 | 8.9 ± 1.8 | 
>250 | 73 ± 3.9 | >250 | 48.9 ± 3.9 | 74.1 ± 3.9 | CC(C)c1cc2c3c(c1OC(=O)CCc1cn(Cc4ccccc4)nn1)OC(=O)[C@@]31CCCC(C)(C)[C@@H]1CC2 [Compound 3, 12-O-(3-(1-benzyl-1H-1,2,3-triazol-4-yl)-propanoyloxy)-11,20-epoxyabieta-8,11,13-trien-20-one] | 4.9 ± 0.5 | 9.0 ± 0.3 | 9.7 ± 0.1 | 14.3 ± 2.0 | 16.7 ± 0.5 | 18.4 ± 0.2 | 26.7 ± 1.5 | 43.4 ± 3 | 5.7 ± 0.8 | 8.1 ± 0.8 | 9.1 ± 1.5 | 14.3 ± 2.0 | 20.2 ± 2.2 | 20.3 ± 3.9 | 11.1 ± 0.4 | IC50 ± SD, MRC-5 [2]: active; Antifungal activity against C. albicans (in words) (C. albicans ATCC 10231): devoid of activity; IC50 ± SD, AGS [3]: active
250 | > 100 | 250 | > 100 | > 100 | CC(C)c1cc2c3c(c1OC(=O)CCCc1cn(Cc4ccccc4)nn1)OC(=O)C31CCCC(C)(C)C1CC2 (centres unmarked) [Compound 4, 12-O-(4-(1-benzyl-1H-1,2,3-triazol-4-yl)-butanoyloxy)-11,20-epoxyabieta-8,11,13-trien-20-one] | 0.0 | 0.0 | 2.3 ± 1.0 | 8.5 ± 1.0 | 9.8 ± 1.1 | 17.8 ± 1.4 | 53.4 ± 2.1 | > 100 | 3.7 ± 0.4 | 4.1 ± 1.7 | 9.5 ± 1.3 | 16.4 ± 2.3 | 28.2 ± 2.1 | 51.6 ± 0.1 | 10.2 ± 1.2 | IC50 ± SD, MRC-5 [2]: inactive; IC50 ± SD, AGS [3]: inactive
250 |  | >250 | 99.4 |  | CC(C)c1cc2c(c(OC(=O)CCc3cn(Cc4ccc([N+](=O)[O-])cc4)nn3)c1OC(=O)CCc1cn(Cc3ccc([N+](=O)[O-])cc3)nn1)C13CCCC(C)(C)C1CC2OC3=O (stereo not drawn) [Compound 23, (7β)-11,12-O-(3-(1-(4-nitrobenzyl)-1H-1,2,3-triazol-4-yl)-propanoyloxy)-7,20-epoxyabieta-8,11,13-trien-20-one] | 6.0 ± 0.1 | 11.5 ± 1.5 | 16.2 ± 0.2 | 18.1 ± 0.4 | 32.6 ± 0.8 | 37.7 ± 0.7 |  |  | 0.0 | 1.6 ± 0.8 | 3.3 ± 0.6 | 6.7 ± 1.6 | 17.6 ± 1.4 | 25.5 ± 2.5 | 6.0 ± 0.5 | 
 |  |  |  |  | COc1cc([C@@H]2c3cc4c(cc3[C@@H](O[C@@H]3O[C@@H]5CO[C@@H](C)O[C@H]5[C@H](O)[C@H]3O)[C@H]3COC(=O)[C@H]23)OCO4)cc(OC)c1O [Etoposide, reference compound] |  |  |  |  |  |  |  |  |  |  |  |  |  |  |  | IC50 ([3]; Homo sapiens, 72 h): 0.58 ± 0.02 µM; IC50 ([4]; Homo sapiens, J82, 72 h): 3.49 ± 0.16 µM
